# Measurements published in patent US4442044A, “Process for preparing monoesters and diesters of N-alkyl substituted amino methyl phosphonic acid” (priority 1983, dated 1984).
# Columns and labels:
# Assay in all cases: post-emergent herbicidal activity, greenhouse
# Format in all cases: in vivo
# Smartweed = settings: 4 WAT
# Summary of the method: (§1)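 Post-emergence foliar spray at tabulated application rates, using aliquots of a 1.0% stock in acetone, THF or water plus ~0.4% emulsifier, applied to 2–3-week-old greenhouse plants. Plant injury was rated relative to controls roughly two and four weeks after treatment.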
# Soybean = settings: Table II, 4 WAT
# Summary of the method: as §1
# Sorghum = settings: Table II, 4 WAT
# Summary of the method: as §1
# Lambsquarters = settings: 4 WAT
# Summary of the method: as §1
# Morningglory = settings: 4 WAT
# Summary of the method: as §1
# Wild Buckwheat = settings: Table II, 4 WAT
# Summary of the method: as §1
# Downy Brome = settings: 4 WAT
# Summary of the method: as §1
# Crabgrass = settings: Table II, 4 WAT
# Summary of the method: as §1
# Cocklebur = settings: 4 WAT
# Summary of the method: as §1
# Johnsongrass = settings: Table I, 4 WAT
# Summary of the method: as §1
# Panicum Spp = settings: Table II, 4 WAT
# Summary of the method: as §1
# Sugar Beet = settings: Table II, 4 WAT
# Summary of the method: as §1
# Canada Thistle = settings: Table I, 4 WAT
# Summary of the method: as §1
# Barnyardgrass = settings: 4 WAT
# Summary of the method: as §1
# Yellow Nutsedge = settings: Table I, 4 WAT
# Summary of the method: as §1
# Rice = settings: Table II, 4 WAT
# Summary of the method: as §1
# Velvetleaf = settings: 4 WAT
# Summary of the method: as §1
# Hemp Sesbania = settings: Table II, 4 WAT
# Summary of the method: as §1
# Quackgrass = settings: Table I, 4 WAT
# Summary of the method: as §1
# Wheat = settings: Table II, 4 WAT
# Summary of the method: as §1
smiles,measurement,setting,value
"CCOC(=O)CNCP(=O)(OC(C)C#N)OC(C)C#N (centres unmarked) [Example 1, glycine, N-[[bis(1-cyanoethoxy)phosphinyl]methyl], ethyl ester]",post-emergent herbicidal activity index,"Smartweed; Table I, 5.6 kg/h",3 (75-99% control)
same,post-emergent herbicidal activity index,"Smartweed; Table I, 11.2 kg/h",4 (100% control)
same,post-emergent herbicidal activity index,"Smartweed; Table II, 0.28 kg/h",0 (0-24% control)
same,post-emergent herbicidal activity index,"Smartweed; Table II, 1.12 kg/h",3 (75-99% control)
same,post-emergent herbicidal activity index,"Smartweed; Table II, 5.6 kg/h",4 (100% control)
same,post-emergent herbicidal activity index,Soybean; 0.28 kg/h,0 (0-24% control)
same,post-emergent herbicidal activity index,Soybean; 1.12 kg/h,2 (50-74% control)
same,post-emergent herbicidal activity index,Soybean; 5.6 kg/h,4 (100% control)
same,post-emergent herbicidal activity index,Sorghum; 0.28 kg/h,1 (25-49% control)
same,post-emergent herbicidal activity index,Sorghum; 1.12 kg/h,3 (75-99% control)
same,post-emergent herbicidal activity index,Sorghum; 5.6 kg/h,4 (100% control)
same,post-emergent herbicidal activity index,"Lambsquarters; Table I, 5.6 kg/h",3 (75-99% control)
same,post-emergent herbicidal activity index,"Lambsquarters; Table I, 11.2 kg/h",1 (25-49% control)
same,post-emergent herbicidal activity index,"Lambsquarters; Table II, 0.28 kg/h",0 (0-24% control)
same,post-emergent herbicidal activity index,"Lambsquarters; Table II, 1.12 kg/h",3 (75-99% control)
same,post-emergent herbicidal activity index,"Lambsquarters; Table II, 5.6 kg/h",3 (75-99% control)
same,post-emergent herbicidal activity index,"Morningglory; Table I, 5.6 kg/h",3 (75-99% control)
same,post-emergent herbicidal activity index,"Morningglory; Table I, 11.2 kg/h",3 (75-99% control)
same,post-emergent herbicidal activity index,"Morningglory; Table II, 0.28 kg/h",1 (25-49% control)
same,post-emergent herbicidal activity index,"Morningglory; Table II, 1.12 kg/h",2 (50-74% control)
same,post-emergent herbicidal activity index,"Morningglory; Table II, 5.6 kg/h",3 (75-99% control)
same,post-emergent herbicidal activity index,Wild Buckwheat; 0.28 kg/h,0 (0-24% control)
same,post-emergent herbicidal activity index,Wild Buckwheat; 1.12 kg/h,2 (50-74% control)
same,post-emergent herbicidal activity index,Wild Buckwheat; 5.6 kg/h,4 (100% control)
same,post-emergent herbicidal activity index,"Downy Brome; Table I, 5.6 kg/h",3 (75-99% control)
same,post-emergent herbicidal activity index,"Downy Brome; Table I, 11.2 kg/h",2 (50-74% control)
same,post-emergent herbicidal activity index,"Downy Brome; Table II, 0.28 kg/h",0 (0-24% control)
same,post-emergent herbicidal activity index,"Downy Brome; Table II, 1.12 kg/h",2 (50-74% control)
same,post-emergent herbicidal activity index,"Downy Brome; Table II, 5.6 kg/h",4 (100% control)
same,post-emergent herbicidal activity index,Crabgrass; 0.28 kg/h,1 (25-49% control)
same,post-emergent herbicidal activity index,Crabgrass; 1.12 kg/h,3 (75-99% control)
same,post-emergent herbicidal activity index,Crabgrass; 5.6 kg/h,4 (100% control)
same,post-emergent herbicidal activity index,"Cocklebur; Table I, 5.6 kg/h",3 (75-99% control)
same,post-emergent herbicidal activity index,"Cocklebur; Table I, 11.2 kg/h",3 (75-99% control)
same,post-emergent herbicidal activity index,"Cocklebur; Table II, 0.28 kg/h",1 (25-49% control)
same,post-emergent herbicidal activity index,"Cocklebur; Table II, 1.12 kg/h",2 (50-74% control)
same,post-emergent herbicidal activity index,"Cocklebur; Table II, 5.6 kg/h",3 (75-99% control)
same,post-emergent herbicidal activity index,Johnsongrass; 5.6 kg/h,3 (75-99% control)
same,post-emergent herbicidal activity index,Johnsongrass; 11.2 kg/h,4 (100% control)
same,post-emergent herbicidal activity index,Panicum Spp; 0.28 kg/h,2 (50-74% control)
same,post-emergent herbicidal activity index,Panicum Spp; 1.12 kg/h,4 (100% control)
same,post-emergent herbicidal activity index,Panicum Spp; 5.6 kg/h,4 (100% control)
same,post-emergent herbicidal activity index,Sugar Beet; 0.28 kg/h,2 (50-74% control)
same,post-emergent herbicidal activity index,Sugar Beet; 1.12 kg/h,4 (100% control)
same,post-emergent herbicidal activity index,Sugar Beet; 5.6 kg/h,4 (100% control)
same,post-emergent herbicidal activity index,Canada Thistle; 5.6 kg/h,4 (100% control)
same,post-emergent herbicidal activity index,Canada Thistle; 11.2 kg/h,3 (75-99% control)
same,post-emergent herbicidal activity index,"Barnyardgrass; Table I, 5.6 kg/h",4 (100% control)
same,post-emergent herbicidal activity index,"Barnyardgrass; Table I, 11.2 kg/h",4 (100% control)
same,post-emergent herbicidal activity index,"Barnyardgrass; Table II, 0.28 kg/h",2 (50-74% control)
same,post-emergent herbicidal activity index,"Barnyardgrass; Table II, 1.12 kg/h",3 (75-99% control)
same,post-emergent herbicidal activity index,"Barnyardgrass; Table II, 5.6 kg/h",4 (100% control)
same,post-emergent herbicidal activity index,Yellow Nutsedge; 5.6 kg/h,2 (50-74% control)
same,post-emergent herbicidal activity index,Yellow Nutsedge; 11.2 kg/h,3 (75-99% control)
same,post-emergent herbicidal activity index,Rice; 0.28 kg/h,0 (0-24% control)
same,post-emergent herbicidal activity index,Rice; 1.12 kg/h,1 (25-49% control)
same,post-emergent herbicidal activity index,Rice; 5.6 kg/h,4 (100% control)
same,post-emergent herbicidal activity index,"Velvetleaf; Table I, 5.6 kg/h",4 (100% control)
same,post-emergent herbicidal activity index,"Velvetleaf; Table I, 11.2 kg/h",3 (75-99% control)
same,post-emergent herbicidal activity index,"Velvetleaf; Table II, 0.28 kg/h",0 (0-24% control)
same,post-emergent herbicidal activity index,"Velvetleaf; Table II, 1.12 kg/h",2 (50-74% control)
same,post-emergent herbicidal activity index,"Velvetleaf; Table II, 5.6 kg/h",4 (100% control)
same,post-emergent herbicidal activity index,Hemp Sesbania; 0.28 kg/h,0 (0-24% control)
same,post-emergent herbicidal activity index,Hemp Sesbania; 1.12 kg/h,5
same,post-emergent herbicidal activity index,Hemp Sesbania; 5.6 kg/h,2 (50-74% control)
same,post-emergent herbicidal activity index,Quackgrass; 5.6 kg/h,3 (75-99% control)
same,post-emergent herbicidal activity index,Quackgrass; 11.2 kg/h,2 (50-74% control)
same,post-emergent herbicidal activity index,Wheat; 0.28 kg/h,1 (25-49% control)
same,post-emergent herbicidal activity index,Wheat; 1.12 kg/h,2 (50-74% control)
same,post-emergent herbicidal activity index,Wheat; 5.6 kg/h,4 (100% control)
"CCOC(=O)CNCP(=O)(O)OCC(Cl)(Cl)Cl [Example 26, glycine, N-[[(2,2,2-trichloroethoxy)hydroxyphosphinyl]methyl]-ethyl ester]",post-emergent herbicidal activity index,"Smartweed; Table I, 11.2 kg/h",0 (0-24% control)
same,post-emergent herbicidal activity index,"Smartweed; Table I, 56.0 kg/h",1 (25-49% control)
same,post-emergent herbicidal activity index,"Lambsquarters; Table I, 11.2 kg/h",1 (25-49% control)
same,post-emergent herbicidal activity index,"Lambsquarters; Table I, 56.0 kg/h",1 (25-49% control)
same,post-emergent herbicidal activity index,"Morningglory; Table I, 11.2 kg/h",0 (0-24% control)
same,post-emergent herbicidal activity index,"Morningglory; Table I, 56.0 kg/h",1 (25-49% control)
same,post-emergent herbicidal activity index,"Downy Brome; Table I, 11.2 kg/h",0 (0-24% control)
same,post-emergent herbicidal activity index,"Downy Brome; Table I, 56.0 kg/h",0 (0-24% control)
same,post-emergent herbicidal activity index,"Cocklebur; Table I, 11.2 kg/h",1 (25-49% control)
same,post-emergent herbicidal activity index,"Cocklebur; Table I, 56.0 kg/h",1 (25-49% control)
same,post-emergent herbicidal activity index,Johnsongrass; 11.2 kg/h,0 (0-24% control)
same,post-emergent herbicidal activity index,Johnsongrass; 56.0 kg/h,0 (0-24% control)
same,post-emergent herbicidal activity index,Canada Thistle; 11.2 kg/h,0 (0-24% control)
same,post-emergent herbicidal activity index,Canada Thistle; 56.0 kg/h,0 (0-24% control)
same,post-emergent herbicidal activity index,"Barnyardgrass; Table I, 11.2 kg/h",1 (25-49% control)
same,post-emergent herbicidal activity index,"Barnyardgrass; Table I, 56.0 kg/h",1 (25-49% control)
same,post-emergent herbicidal activity index,Yellow Nutsedge; 11.2 kg/h,0 (0-24% control)
same,post-emergent herbicidal activity index,Yellow Nutsedge; 56.0 kg/h,1 (25-49% control)
same,post-emergent herbicidal activity index,"Velvetleaf; Table I, 11.2 kg/h",0 (0-24% control)
same,post-emergent herbicidal activity index,"Velvetleaf; Table I, 56.0 kg/h",0 (0-24% control)
same,post-emergent herbicidal activity index,Quackgrass; 11.2 kg/h,0 (0-24% control)
same,post-emergent herbicidal activity index,Quackgrass; 56.0 kg/h,0 (0-24% control)
